Reference: ChEMBL document CHEMBL1144826, “Selective vasodilatation effect of sargahydroquinoic acid, an active constituent of Sargassum micracanthum, on the basilar arteries of rabbits” (Bioorg Med Chem Lett, 2008)

Key:
[1] = Vasodialative effect on high K+-induced vasoconstriction in rabbit basilar artery; type: functional, tissue-based, Oryctolagus cuniculus
[2] = Vasodialative effect on high K+-induced vasoconstriction in rabbit carotid artery; type: functional, Oryctolagus cuniculus
[3] = Selectivity index, ratio of EC50 for vasodialative effect on high K+-induced vasoconstriction in rabbit carotid artery to basilar artery; type: functional, Oryctolagus cuniculus

## CC(C)=CCC/C(=C/CC/C(C)=C/CC/C(C)=C/Cc1cc(O)cc(C)c1O)C(=O)O [SARGAHYDROQUINOIC ACID]
[1]
  EC50: 11.8 µM
[2]
  EC50: 140 µM
[3]
  Ratio EC50: 11.9
